Laboratory results as given in US6638938B1, “Method for preventing tissue injury from hypoxia” (Cell Therapeutics, Inc., priority 1993, dated 2003).

Assays:
Assay type in all cases: in vivo, Balb/C mice
neutrophils in BAL = assay: percentage of neutrophils among BAL samples; conditions: hemorrhage/resuscitated mice treated; 11±2% in untreated; p<0.05
Procedure: This example illustrates a study of Lisofylline in a murine hemorrhage and resuscitation model. Male Balb/C mice, 8-12 weeks of age, were obtained from Harlan-Sprague Dawley (Indianapolis, Ind.). The animals were kept on a 12 hour light/dark cycle with free access to food and water. With this model, 30% of the calculated blood volume (approximately 0.55 ml for a 20 gram mouse) was withdrawn from a methoxyflurane anesthetized mouse by cardiac puncture over a 60-second period. The blood was collected into a heparinized syringe (5 units heparin), kept at 37° C. for one hour, then reinfused into the mouse through a retroorbital plexus injection. Using this method, one is able to resuscitate all hemorrhaged mice without complication. […]
(§1) Three days following hemorrhage and resuscitation or the initiation of treatment with Lisofylline therapy in normal treated animals, mice were anesthetized with methoxyflurane and sacrificed by exsanguination through cardiac puncture into a heparinized (5 U) syringe. […] As determined by cytology, there was less than 3% contamination of alveolar macrophages with lymphocytes, neutrophils, or other mononuclear cell populations when BAL specimens are collected in normal Balb/C mice, but approximately 11±2% of isolated cells are neutrophils in mice subjected 3 days previously to 30% blood volume hemorrhage with resuscitation one hour later. […]

[1] = tested on: mRNA for IL-1β, IL-6, TNFα and IFN-γ; assay: cytokine mRNA by PCR in murine hemorrhage and resuscitation model
Procedure: (§2) This example illustrates a study of Lisofylline in a murine hemorrhage and resuscitation model. Male Balb/C mice, 8-12 weeks of age, were obtained from Harlan-Sprague Dawley (Indianapolis, Ind.). The animals were kept on a 12 hour light/dark cycle with free access to food and water. With this model, 30% of the calculated blood volume (approximately 0.55 ml for a 20 gram mouse) was withdrawn from a methoxyflurane anesthetized mouse by cardiac puncture over a 60-second period. The blood was collected into a heparinized syringe (5 units heparin), kept at 37° C. for one hour, then reinfused into the mouse through a retroorbital plexus injection. Using this method, one is able to resuscitate all hemorrhaged mice without complication. The total period of methoxyflurane anesthesia is less than 2 minutes in all cases. The mortality rate with this hemorrhage protocol is approximately 12%, with all deaths occurring over the 24 hours post hemorrhage, and most deaths occurring within the one hour post hemorrhage.
(§3) Mice were treated with 100 mg/kg Lisofylline in 0.2 ml PBS and given initially i.v., by retroorbital injection, then i.p. every 8 hours for a total of 9 doses. In hemorrhaged mice, the Lisofylline in PBS was added to the shed blood, and then given retroorbitally with the blood during the resuscitation phase. In hemorrhaged Balb/C mice (n=3), sacrificed by exsanguination 5 minutes after receiving Lisofylline with the blood used for resuscitation, serum levels of Lisofylline were 44±6 μg/ml.
Intraparenchymal pulmonary mononuclear cells were isolated by collagenase digestion and Percoll® gradient purification using techniques previously described. Briefly, after the mouse was killed by cervical dislocation or exsanguination, the chest was opened and the lung vascular bed was flushed by injecting 3-5 ml of chilled (4° C.) PBS into the right ventricle. The lungs were then excised, avoiding the paratracheal lymph nodes, and washed twice in RPMI 1640. The lungs were minced finely, and the tissue pieces placed in RPMI 1640 with 5% FCS, penicillin/streptomycin, 10 mM HEPES, 50 μM 2-ME, 20 mM L-glutamine, containing 20 U/ml collagenase and 1 μg/ml DNase. Following incubation for 60 minutes at 37° C., any remaining intact tissue was disrupted by passage through a 21 gauge needle. Tissue fragments and the majority of dead cells were removed by rapid filtration through a glass wool column, and cells collected by centrifugation. The cell pellet was suspended in 4 ml of 80% Percoll® (Pharmacia, Uppsala, Sweden) and 4 ml of 40% Percoll® was then layered on. After centrifugation at 600 g for 20 minutes at 15° C., the cells at the interface were collected, washed in RPMI 1640, and counted. Viability, as determined by trypan blue exclusion, was consistently greater than 98%.
Peripheral blood mononuclear cells were isolated from heparinized blood which had been diluted 2:1 with PBS, pH 7.3, and layered onto a gradient containing 4 ml Lympholyte M (Accurate Chemicals, San Diego, Calif.). After centrifugation at 600 g for 20 minutes at 15° C., the cells at the interface were collected, washed in RPMI 1640, and counted. Viability, as determined by trypan blue exclusion, was consistently greater than 98%. Plasma was collected following centrifugation of bloodto whichhad beenadded 10^−3 M EDTA.
mRNA was isolated using oligo dT cellulose minicolumns (Invitrogen San Diego, Calif.). cDNA was synthesized from the mRNA of 100,000 cells for all cell populations except alveolar macrophages (where 20,000 cells were used) using Moloney murine leukemia virus reverse transcriptase and random hexamer oligonucleotides according to the procedure of Kawasaki (PCR Protocols: A Guide to Methods and Applications, Innis et al., eds, pp. 21-27, Academic Press, New York, 1991). […]

TNFα = TNFα sandwich ELISA of BAL supernatants and plasma
Procedure: as §2, §3
as §1, with “syringe. Normal mice, not subjected to hemorrhage/resuscitation or to treatment with Lisofylline, were included. Bronchoalveolar lavage (BAL) specimens, using 1.0 ml PBS injected and aspirated three times into the trachea and lungs, were obtained. Cells contained in the BAL were collected by centrifugation of BAL specimens.” for “syringe.”
TNFα and IFN-γconcentrations in BAL supernatants and plasma were determined with sandwich ELISA assays using the monoclonal antibody pairs (i.e., unbiotinylated or biotinylated) MP6-XT3 for TNFα and XMG1.2 for IFN-γ(Pharmingen San Diego, Calif.). […]

Structure (SMILES): C[C@@H](O)CCCCn1c(=O)c2c(ncn2C)n(C)c1=O [Lisofylline, 1-R-(5-hydroxyhexyl)-3,7-dimethylxanthine]
- percentage of neutrophils among BAL samples (neutrophils in BAL): 6±2%
- murine lung cytokine levels (FIG. 5) ([1]; determined by PCR, following hemorrhage and resuscitation): significantly decreased
- lung cytokine concentrations (FIG. 7) ([1]; following hemorrhage shock in mice, model of ARDS): significantly decreased
- TNFα mRNA levels in PBMC ([1]; hemorrhage/resuscitated mice treated, versus untreated, 3 days): significantly decreased
- amounts of mRNA for IL-1β and TNF among cells isolated from BAL samples ([1]; hemorrhaged/resuscitated mice treated, versus normal untreated or normal treated mice): not different
- levels of mRNA for IL-1β, IL-6, TNFα and IFN-γ among intraparenchymal pulmonary mononuclear cells ([1]; hemorrhaged/resuscitated mice treated, versus untreated, 3 days): significantly decreased
- mRNA levels in PBMC for IL-1β, IL-6, TNFα and IFN-γ ([1]; treatment after hemorrhage): did not affect
- plasma TNFα concentrations (TNFα; hemorrhage/resuscitated/Lisofylline treated mice): 218 ± 49 pg/mL
- TNFα concentrations in BAL supernatants (TNFα; hemorrhaged/resuscitated mice treated): 73 ± 45 pg/mL
- plasma TNFα concentrations (TNFα; normal/Lisofylline treated mice): 116 ± 36 pg/mL
- TNFα in BAL supernatants (TNFα; unhemorrhaged mice treated, p<0.01 versus normal untreated): 676±80 pg/mil
